Results on 5 compounds are retold here after patent US20210087159A1, “TETRAHYDROCANNABINOLIC- CA[…] DERIVATIVES AND USES THEREOF” (AL&AM […]., priority 2018, published 2021).

Molecules are shown by their SMILES.

Assay type in all cases: cell-based
Test [1] relates to PANC-1 (pancreatic carcinoma). Description: XTT cytotoxicity assay (Pharma Seed). The following applies: Homo sapiens, 48 hours, 20, 10, 5, 1 μM, assay medium 1% FBS. The method, then:
In this study, the cytotoxicity of several compounds of the present invention on lung and pancreatic cancer cell was evaluated.
PANC-1 (pancreatic carcinoma) culture medium: DMEM (High Glucose), supplemented with 10% FBS (heat inactivated), 2 mM L-glutamine, and 1% of Pen/Strep/Amp solution. PANC-1 assay medium: DMEM (High Glucose), supplemented with 1% FBS (heat inactivated), 2 mM L-glutamine, and 1% of Pen/Strep/Amp solution.
Each of the tested compounds was dissolved in DMSO to reach a stock concentration of 20 mM (and stored at −15° C.-−25° C. until use. Compound Ia28 (MW 484 g/mol, 3.05 mg total) was dissolved in 0.315 mL; compound Ia9 (MW 484 g/mol, 2.33 mg total) was dissolved in 0.241 mL; and compound Ia6 (MW 428.3 g/mol, 2.25 mg total) was dissolved in 0.262 mL.
On the day of incubation with the cells, each compound was diluted in DMSO to reach 2 mM, 1 mM, 0.5 mM, 0.1 mM stock concentrations (1:10, 1:20, 1:40 and 1:200), and each of these stocks was further diluted in assay medium 1:100 for final concentration of 20 μM, 10 μM, 5 μM, and 1 μM.
Part 1—cell number calibration. PANC-1 and A549 cells were each plated in a 96 well plate, in their culture medium, at various cell concentrations per well, in triplicates, and were allowed to attach for 24 hours. Thereafter, culture medium was discarded, assay medium was added, and the cells were incubated for additional 72 hours. Finally, assay medium was discarded, and fresh culture medium was added to the cells along with 50 μl XTT reagent. The OD was measured every two hours for 6 hours (three times).
The highest cells number/well were chosen for part 2 as follows: PANC-1 at 7,500 cells per well, A549 at 5000 cells per well.
Part 2—cells incubation with tested compounds. PANC-1 and A549 cells were plated in a 96 well plate, in their culture medium, at the optimal cell concentration according to the results from the previous section and were allowed to attach for 24 hours. Thereafter, the culture medium was discarded, and fresh assay medium was added to the cells, supplemented with elevating compound concentrations. Triton 0.1% was used as positive control for cell death. The cells were incubated for another 48 hours (TBD upon microscopic observation). Finally, fresh culture medium was added to the cells along with 50 μl XTT reagent. The OD was measured at the optimal time point according to the results in the previous section.

In test [2] the test system is human peripheral blood mononuclear cells (PBMCs). The experiment in a line: Cell proliferation of LPS-challenged PBMCs by CellTiter-Glo (CTG). Particulars: human PBMCs, 72 h (LPS control 84.50). From the text: (§1) This study was aimed to test the effect of 12 compounds (THCA, Ia1, Ia5, Ia6, Ia9, Ia11, Ia15, Ia17, Ia24, Ia25, Ia27, and Ia28) on human peripheral blood mononuclear cells (PBMCs) challenged by lipopolysaccharide (LPS) through monitoring multiple inflammatory endpoints.
(§2) Blood samples were collected from healthy volunteers according to protocols that have been reviewed and approved by the Chempartner Institutional Ethic Committee (IEC) upon signing an Informed Consent Form (ICF).
(§3) Fresh PBMCs were isolated and seeded into 96-well plate, and diluted solutions of the tested compounds and 0.1 μg/mL LPS were then added (in triplicates). To serve as control, 3 wells with PBMCs only, 3 wells with 0.1 μg/mL LPS, and 2 wells with 1 μg/mL dexamethasone (Dex) and 0.1 μg/mL LPS were included. After 72 hours incubation, supernatant was collected for tumor necrosis factor-α (TNF-α) measurement by enzyme-linked immunosorbent assay (ELISA), and cell pellets were harvested for cell proliferation measurement by CellTiter-Glo® Luminescent Cell Viability Assay (CTG).
(§4) The human blood sample from an individual donor was diluted by the same volume of sterile phosphate buffered solution (PBS) and mixed sufficiently by gentle shake. 15 mL Lymphoprep™ medium was transferred into a new 50 mL centrifuge tube, and the diluted blood sample (30 mL) was then carefully added onto the surface of the medium, which consequently contained Ficoll 400 and blood in a volume ratio of 1:2. Four interfaces were observed after centrifugation, which are, from top to bottom, layers of plasma, mononuclear cells, Ficoll medium, and red blood cells (RBCs). Plasma was absorbed, and mononuclear cells were then transferred into another new sterile centrifuge tube. Then, sterile PBS buffer was added into the collected PBMCs for washing, at a volume ratio of 3:1. PBMCs were washed with 5-10 mL PBS twice before cell counting with cytometer. Cells were centrifuged at 350×g, for 10 min, at 20° C. with the acceleration (5) and deceleration (5) settings during the centrifugation. The cells were resuspended with RPMI 1640 complete medium (containing 10% FBS) for assay, and the density was adjusted with RPMI 1640 complete medium to the final concentration of 2E6 cells/mL. Cells suspension of the PBMCs (100 μL/well) were seeded into 96-well plate (#3903).
(§5) Diluted solutions of the tested compounds were prepared with RPMI 1640 complete medium according to the following layout. Compounds were prepared at 5-fold of concentration (50 μM), and then were diluted to the working concentration of 10 μM with RPMI 1640 complete medium and made 10-fold serially dilution (2 points). The diluted compounds (50 μL/well) were added to the indicated wells, and the plate was incubated at 37° C., 5% CO2, for 72 h.
(§6) LPS (0.1 μg/mL, 100 μL) was added into each well. Dex (1 μg/mL) was included as a positive control. Plate was incubated at 37° C., 5% CO2 for 72 h. Supernatant was collected to measure TNF-α by ELISA. Cell proliferation was detected by CTG.
On the technique in general: ATP-based viability assays read luminescence as a measure of living cells.

Test [3] relates to TNF-α. The experiment in a line: LPS induced cytokine release assay, TNF-α by ELISA in PBMCs. The following applies: human PBMCs; for TNF-α: 72 h, ELISA (LPS control 18.16).
Excerpt: as §1, §2, §3, §4, §5, §6
Background: An ELISA detects its analyte on a solid surface through an enzyme-linked reagent.

Test [4] relates to SK-HEP-1, liver adenocarcinoma. Description: CellTiter-Glo cell viability assay, cancer cell cytotoxicity/anti-proliferation panel (Chempartner). Particulars: Homo sapiens, SK-HEP1, 72 h; read-out: IC50 (absolute IC50). The method, then: (§7) In this study, the biological activity of certain compounds of the present invention on cancer cell cytotoxicity/anti-proliferation panel was tested using the CellTiter-Glo® cell viability assay. The compounds were dissolved in DMSO to make 10 mM solution.
(§8) The cell lines tested were all selected from the Chempartner's cell collection and included: Caco-2 ATCC colon adenocarcinoma; TE-6 RIKEN esophagus, carcinoma; PC-3 ATCC prostate adenocarcinoma; T47D, breast ductal carcinoma; U251, brain human glioma; A549, lung carcinoma; OMP-2, multiple myeloma; SK-HEP-1, liver adenocarcinoma; PANC-1, pancreas ductal carcinoma; AsPC-1, pancreas, ductal carcinoma; and U-87 MG, brain glioblastoma.
(§9) For the assays described herein, absolute inhibition of cells growth (%) and absolute IC50 (Abs IC50; […]) were used to derive a value that can be used to compare results within and across runs in the same assay, as well as between different assays.
(§10) • a. Prepare complete medium: Add FBS and appropriate additives according to the information sheet provided by the vendor. Mix gently. • b. Check the cell name and complete medium and passage number marked on the flask. For adherent cell lines, refer to c to k. For suspension cell lines, refer to g to k. • c. Remove and discard culture medium using a vacuum pump. • d. Briefly rinse the cell layer with 0.25% (w/v) trypsin-0.038% (w/v) EDTA solution to remove all traces of serum that contains trypsin inhibitor. • e. Add 3.0 ml of trypsin-EDTA solution to flask and observe cells under an inverted microscope until cell layer is dispersed. • f. Add 8.0 ml of complete growth medium and aspirate cells by gently pipetting. • g. Transfer the cell suspension to a centrifuge tube and centrifuge at 800-1000 rpm for 3-5 minutes. • h. Discard the supernatant using a vacuum pump. • i. Add appropriate volume of complete medium. Suspend the cell pellet by gently pipetting. • j. Count the cell numbers with Vi-cell XR and adjust cells to appropriate density. • k. Add 100 μL of cell suspension to 96-well opaque-walled clear bottom plates according to the planned plate layout and place the plates in the CO2 incubator overnight. • l. Plate layout:
(§11) • Plate preparation of testing articles. 10 mM stock solution of each one of the compounds (provided as powder) was prepared in DMSO. […] 0.5 μL of each of the diluted compounds was transferred to the wells containing 100 μL of the culture medium. The total dilution was 200 fold. Cells were incubated with the compounds for 72 hours at 5% CO2, 37° C.
(§12) • Thaw the CellTiter-Glo buffer and equilibrate to room temperature prior to use. • Equilibrate the lyophilized CellTiter-Glo substrate to room temperature prior to use. • Transfer the appropriate volume of CellTiter-Glo buffer into the amber bottle containing CellTiter-Glo substrate to reconstitute the lyophilized enzyme/substrate mixture. This forms the CellTiter-Glo reagent. • Mix by gently vortexing, swirling or by inverting the contents to obtain a homogeneous solution. The CellTiter-Glo substrate should go into solution easily in less than one minute.
(§13) • Observe the cell morphology under an inverted microscope after corresponding treatment. • Equilibrate the plate and its contents to room temperature for approximately 30 minutes. • Add 100 μL of CellTiter-Glo reagent to the assay plate by Multidrop Combi instrument. • Mix contents for 10 minutes on an orbital shaker to induce cell lysis. • Allow the plate to incubate at room temperature for 10 minutes to stabilize luminescent signal. • Paste the clear bottom with white back seal and record luminescence with Enspire. The settings should be: Luminescence, measurement time 0.1 ms.
(§14) Inhibition (%) and absolute IC50 (μM) of each compound was calculated with XLFit curve fitting software that is compatible to Activity Base.

Test [5] relates to PANC-1, pancreas ductal carcinoma. Described as above. Particulars: Homo sapiens, PANC-1, 72 h; read-out: IC50 (absolute IC50). Here is the method:
as §7, §8, §9, §10, §11, §12, §13, §14

The test system of test [6] is U-87 MG, brain glioblastoma. The description is as above. The following applies: Homo sapiens, 72 h, read-out: IC50 (absolute IC50). The method, then:
as §7, §8, §9, §10, §11, §12, §13, §14

In the case of `CCCCCc1cc2c(c(O)c1C(=O)NCCN1CCCC1)[C@@H]1C=C(C)CC[C@H]1C(C)(C)O2` [Ia32, (6aR,0aR)-1-hydroxy-6,6,9-trimethyl-3-pentyl-N-(2-(pyrrolidin-1-yl)ethyl)-6a,7,8,10a-tetrahydro-6H-benzo[c]chromene-2-carboxamide], in test [1], the IC50 amounted to 3.9 µM.

Take `C=C(C)[C@@H]1CCC(C)=C[C@H]1c1c(O)cc(CCCCC)c(C(=O)NCCN2CCCC2)c1O` [Ia27, (1′R,2′R)-2,6-dihydroxy-5′-methyl-4-pentyl-2′-(prop-1-en-2-yl)-N-(2-(pyrrolidin-1-yl)ethyl)-1′,2′,3′,4′-tetrahydro-[1,1′-biphenyl]-3-carboxamide]: the IC50 in test [1] came to 7.5 µM. In addition, the CTG signal in test [2] (compound 1 μM + 0.1 μg/mL LPS) is recorded as 81.90 10^4; in test [2] (compound 10 μM + 0.1 μg/mL LPS), 78.67 10^4. Further, the TNF-α is 36.23 pg/mL in test [3] (compound 1 μM + 0.1 μg/mL LPS) and 22.09 pg/mL in test [3] (compound 10 μM + 0.1 μg/mL LPS). Further, the “change of TNF-α expression in LPS-treated cells” value in test [3] (tested concentrations of 1 M and 10 M (so in the source)) is given as “decreased TNF-α expression”.

The compound `CCCCCc1cc2c(c(O)c1C(=O)NCCn1ccnc1)[C@@H]1C=C(C)CC[C@H]1C(C)(C)O2` [Ia33, (6aR,0aR)—N-(2-(1H-imidazol-1-yl)ethyl)-1-hydroxy-6,6,9-trimethyl-3-pentyl-6a,7,8,10a-tetrahydro-6H-benzo[c]chromene-2-carboxamide] displayed an IC50 in test [1] of 6.7 µM.

For the compound `CN[C@@H]1C[C@H]2O[C@@](C)([C@@H]1OC)n1c3ccccc3c3c4c(c5c6ccccc6n2c5c31)C(=O)NC4` [STS, Staurosporine, reference compound], the IC50 is 0.07 µM in test [4], 0.04 µM in test [5] and 0.082 µM in test [6].

As for `CCCCCc1cc2c(c(O)c1C(=O)NCCNc1ncccn1)[C@@H]1C=C(C)CC[C@H]1C(C)(C)O2` [Ia31, (6aR,0aR)-1-hydroxy-6,6,9-trimethyl-3-pentyl-N-(2-(pyrimidin-2-ylamino)ethyl)-6a,7,8,10a-tetrahydro-6H-benzo[c]chromene-2-carboxamide], inhibition in test [1] was half-maximal at 8.5 µM (IC50).

By IC50 is commonly meant the concentration that gives 50% inhibition.
